Here are results for 32 compounds from US7109354B2, “Thiophene amidines, compositions thereof, and methods of treating complement-mediated diseases and conditions” (3-Dimensional Pharmaceuticals, Inc., priority 2002, dated 2006).

Values joined by “and” are separate entries in the source; they are usually repeats but may differ in a detail not shown here. Identical values can stand only once.

The target of this test is T1, Activated human C1s (Homo sapiens, UniProt P09871).
T1 construct: purchased Calbiochem (La Jolla, Calif.)
T1 sequence (P09871 438-688 limits assumed): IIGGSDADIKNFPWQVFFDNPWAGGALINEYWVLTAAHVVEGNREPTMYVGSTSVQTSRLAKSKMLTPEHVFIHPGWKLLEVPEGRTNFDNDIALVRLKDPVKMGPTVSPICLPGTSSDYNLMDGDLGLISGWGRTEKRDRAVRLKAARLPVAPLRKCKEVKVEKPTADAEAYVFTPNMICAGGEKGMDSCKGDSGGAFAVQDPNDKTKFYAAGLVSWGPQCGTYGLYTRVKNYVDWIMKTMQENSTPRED
T1 sequence (P09871 16-437 partner limits assumed): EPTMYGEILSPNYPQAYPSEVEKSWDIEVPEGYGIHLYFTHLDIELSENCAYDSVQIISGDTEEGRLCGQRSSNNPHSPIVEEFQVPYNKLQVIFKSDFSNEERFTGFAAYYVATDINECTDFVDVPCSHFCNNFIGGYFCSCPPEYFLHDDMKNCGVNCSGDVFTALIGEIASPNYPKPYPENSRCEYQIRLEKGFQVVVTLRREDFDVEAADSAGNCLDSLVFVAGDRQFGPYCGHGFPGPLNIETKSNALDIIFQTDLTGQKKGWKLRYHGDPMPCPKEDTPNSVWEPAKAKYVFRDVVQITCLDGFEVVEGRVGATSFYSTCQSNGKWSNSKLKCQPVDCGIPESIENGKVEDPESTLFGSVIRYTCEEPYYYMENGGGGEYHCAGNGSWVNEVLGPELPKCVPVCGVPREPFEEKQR
The test can be described thus: In vitro inhibition of C1s (Ki determination, C1s-catalyzed hydrolysis of Z-Gly-Arg-S-Bzl, DTNB readout). It counts as biochemical. The conditions noted are these: substrate Z-Gly-Arg-S-Bzl 45 μM, DTNB 200 μM, C1s 2.3 nM, pH 7.5, 37° C., absorbance at 405 nm. The protocol:
Reagents: All buffer salts were obtained from Sigma Chemical Company (St. Louis, Mo.), and were of the highest purity available. DTNB was purchased from Pierce (Rockford, Ill.). Z-Gly-Arg-S-Bzl was purchased from Enzyme Systems Products (Livermore, Calif.). Activated human C1s was purchased from Calbiochem (La Jolla, Calif.).
Test compounds are prepared as a 10 μM solution in DMSO. Dilutions are prepared in DMSO yielding 7 final concentrations encompassing a 700-fold concentration range.
Reactions were initiated by the addition of a 10 μL aliquot of the enzyme, and the absorbance increase at 405 nm is continuously recorded for 15 minutes in a Molecular Devices plate reader. Final DMSO concentration was 4.3%. […] The ratio of the velocity (rate of change in absorbance as a function of time) for a sample containing no test compound is divided by the velocity of a sample containing test compound, and is plotted as a function of test compound concentration. The data are fit to a linear regression, and the value of the slope of the line calculated. The inverse of the slope is the experimentally determined Ki value.
As usually defined, the Ki is the dissociation constant of the complex between target and ligand, obtained from inhibition or displacement. Consider `CSc1sc(C(=N)N)cc1S(=O)(=O)c1cccc(-c2ccc(OC(F)(F)F)cc2)c1` [Example 55, 5-Methylsulfanyl-4-(4′-trifluoromethoxy-biphenyl-3-sulfonyl)-thiophene-2-carboxamidine], for which the Ki fell in the range of 6 to 23 nM. `CSc1sc(C(=N)N)cc1S(=O)(=O)c1cccc(-c2ccc(Oc3ccccc3)cc2)c1` [Example 56, 5-Methylsulfanyl-4-(4′-phenoxy-biphenyl-3-sulfonyl)-thiophene-2-carboxamidine] yielded a Ki of 6 to 23 nM.

For the compound `CSc1sc(C(=N)N)cc1S(=O)(=O)c1cccc(-c2ccc3c(c2)OCO3)c1` [Example 58, 4-(3-Benzo[1,3]dioxol-5-yl-benzenesulfonyl)-5-methylsulfanyl-thiophene-2-carboxamidine], the inhibition constant (Ki) is 6 to 23 nM. As for `CSc1sc(C(=N)N)cc1S(=O)(=O)c1cccc(-c2ccc3cccnc3c2)c1` [Example 59, 5-Methylsulfanyl-4-(3-quinolin-7-yl-benzenesulfonyl)-thiophene-2-carboxamidine], the figure is 6 to 23 nM. In turn, `CSc1sc(C(=N)N)cc1S(=O)(=O)c1cccc(-c2cccc(C)c2)c1` [Example 60, 4-(3′-methyl-biphenyl-3-sulfonyl)-5-methylsulfanyl-thiophene-2-carboxamidine] yielded an inhibition constant Ki of 6 to 23 nM. Turning to `CSc1sc(C(=N)N)cc1S(=O)(=O)c1cccc(-c2cccc(C=O)c2)c1` [Example 61, 4-(3′-Formyl-biphenyl-3-sulfonyl)-5-methylsulfanyl-thiophene-2-carboxamidine], the inhibitory constant (Ki) was 6 to 23 nM and 6 nM. The value for `CSc1sc(C(=N)N)cc1S(=O)(=O)c1cccc(-c2cccc(N)c2)c1` [Example 62, 4-(3′-Amino-biphenyl-3-sulfonyl)-5-methylsulfanyl-thiophene-2-carboxamidine] was 6 to 23 nM; that for `CSc1sc(C(=N)N)cc1S(=O)(=O)c1cccc(-c2cccc(C(F)(F)F)c2)c1` [Example 63, 5-Methylsulfanyl-4-(3′-trifluoromethyl-biphenyl-3-sulfonyl)-thiophene-2-carboxamidine] was 6 to 23 nM; that for `CSc1sc(C(=N)N)cc1S(=O)(=O)c1cccc(-c2cccc(CO)c2)c1` [Example 64, 4-(3′-Hydroxymethyl-biphenyl-3-sulfonyl)-5-methylsulfanyl-thiophene-2-carboxamidine] was 6 to 23 nM. For `CSc1sc(C(=N)N)cc1S(=O)(=O)c1cccc(-c2cccc(-c3ccccc3)c2)c1` [Example 65, 5-Methylsulfanyl-4-([1,1′;3′,1″]terphenyl-3-sulfonyl)-thiopbene-2-carboxamidine], the inhibition constant Ki is 6 to 23 nM. The value for `CSc1sc(C(=N)N)cc1S(=O)(=O)c1cccc(-c2cccc3c2oc2ccccc23)c1` [Example 66, 4-(3-Dibenzofuran-4-yl-benzenesulfonyl)-5-methylsulfanyl-thiophene-2-carboxamidine] was 6 to 23 nM; that for `CSc1sc(C(=N)N)cc1S(=O)(=O)c1cccc(-c2ccccc2C(F)(F)F)c1` [Example 67, 5-Methylsulfanyl-4-(2′-trifluoromethyl-biphenyl-3-sulfonyl)-thiophene-2-carboxamidine] was 6 to 23 nM. The value for `CSc1sc(C(=N)N)cc1S(=O)(=O)c1cccc(-c2ccccc2CO)c1` [Example 68, 4-(2′-Hydroxymethyl-biphenyl-3-sulfonyl)-5-methylsulfanyl-thiophene-2-carboxamidine] was 6 to 23 nM.

`CSc1sc(C(=N)N)cc1S(=O)(=O)c1cccc(-c2ccccc2Cl)c1` [Example 69, 4-(2′-Chloro-biphenyl-3-sulfonyl)-5-methylsulfanyl-thiophene-2-carboxamidine]: the inhibitory constant (Ki) lay in the range of 6 to 23 nM.

As for `CSc1sc(C(=N)N)cc1S(=O)(=O)c1cccc(-c2cccnc2)c1` [Example 70, 5-Methylsulfanyt-4-(3-pyridin-3-yl-benzenesulfonyl)-thiophene-2-carboxamidine], the inhibition constant Ki is 6 to 23 nM. In turn, `CSc1sc(C(=N)N)cc1S(=O)(=O)c1cccc(-c2cncnc2)c1` [Example 71, 5-Methylsulfanyl-4-(3-pyrimidin-5-yl-benzenesulfonyl)-thiophene-2-carboxamidine] had an inhibition constant Ki of 6 to 23 nM. The value for `CSc1sc(C(=N)N)cc1S(=O)(=O)c1cccc(-c2ccoc2)c1` [Example 72, 4-(3-Furan-3-yl-benzenesulfonyl)-5-methylsulfanyl-thiophene-2-carboxamidine] was 6 to 23 nM; that for `CSc1sc(C(=N)N)cc1S(=O)(=O)c1cccc(-c2cnc3ccccc3c2)c1` [Example 73, 5-Methylsulfanyl-4-(3-quinolin-3-yl-benzenesulfonyl)-thiophene-2-carboxamidine] was 6 to 23 nM; that for `COC(=O)c1ccc(-c2cccc(S(=O)(=O)c3cc(C(=N)N)sc3SC)c2)cc1` [Example 74, 3′-(5-Carbamimidoyl-2-methylsulfanyl-thiophene-3-sulfonyl)-biphenyl-4-carboxylic acid methyl ester] was 6 to 23 nM. The value for `CSc1sc(C(=N)N)cc1S(=O)(=O)c1cccc(-c2cc(C)cc(C)c2)c1` [Example 75, 4-(3′,5′-Dimethyl-biphenyl-3-sulfonyl)-5-methylsulfanyl-thiophene-2-carboxamidine] was 6 to 23 nM; that for `CSc1sc(C(=N)N)cc1S(=O)(=O)c1cccc(-c2ccco2)c1` [Example 76, 4-(3-Furan-2-yl-benzenesulfonyl)-5-methylsulfanyl-thiophene-2-carboxamidine] was 6 to 23 nM; that for `CSc1sc(C(=N)N)cc1S(=O)(=O)c1cccc(-c2cccc([N+](=O)[O-])c2)c1` [Example 78, 5-Methylsulfanyl-4-(3′-nitro-biphenyl-3-sulfonyl)-thiophene-2-carboxamidine] was 6 to 23 nM.

Compound `CSc1sc(C(=N)N)cc1S(=O)(=O)c1cccc(-c2ccc(O)cc2)c1` [Example 79, 4-(4′-Hydroxy-biphenyl-3-sulfonyl)-5-methylsulfanyl-thiophene-2-carboxamidine] registered a Ki of 6 to 23 nM. For the compound `CSc1sc(C(=N)N)cc1S(=O)(=O)c1cccc(-c2ccc(C=O)cc2)c1` [Example 80, 4-(4′-Formyl-biphenyl-3-sulfonyl)-5-methylsulfanyl-thiophene-2-carboxamidine], the Ki was in the range of 6 to 23 nM. With `CSc1sc(C(=N)N)cc1S(=O)(=O)c1cccc(-c2ccc(F)cc2)c1` [Example 81, 4-(4′-Fluoro-biphenyl-3-sulfonyl)-5-methylsulfanyl-thiophene-2-carboxamidine], the inhibition constant (Ki) is 6 to 23 nM. For `CSc1sc(C(=N)N)cc1S(=O)(=O)c1cccc(-c2ccc(-c3ccccc3)c(F)c2)c1` [Example 82, 4-(2′-Fluoro-[1,1′;4′,1″]terphenyl-3″-sulfonyl)-5-methylsulfanyl-thiophene-2-carboxamidine], the Ki was 6 to 23 nM. In the case of `CSc1sc(C(=N)N)cc1S(=O)(=O)c1cccc(-c2ccc(CO)cc2)c1` [Example 83, 4-(4′-hydroxymethyl-biphenyl-3-sulfonyl)-5-methylsulfanyl-thiophene-2-carboxamidine], the inhibitory constant (Ki) lay in the range of 6 to 23 nM. Regarding `CSc1sc(C(=N)N)cc1S(=O)(=O)c1cccc(-c2ccc(C#N)cc2)c1` [Example 84, 4-(4′-cyano-biphenyl-3-sulfonyl)-5-methylsulfanyl-thiophene-2-carboxamidine], the Ki fell in the range of 6 to 23 nM. As to `CSc1sc(C(=N)N)cc1S(=O)(=O)c1cccc(-c2ccc(C(C)=O)cc2)c1` [Example 85, 4-(4′-acetyl-biphenyl-3-sulfonyl)-5-methylsulfanyl-thiophene-2-carboxamidine], the inhibition constant Ki was 6 to 23 nM. For `CSc1sc(C(=N)N)cc1S(=O)(=O)c1cccc(-c2ccc(N(C)C)cc2)c1` [Example 86, 4-(4′-dimethylamino-biphenyl-3-sulfonyl)-5-methylsulfanyl-thiophene-2-carboxamidine], the Ki was in the range of 6 to 23 nM. Take `C=Cc1ccccc1-c1cccc(S(=O)(=O)c2cc(C(=N)N)sc2SC)c1` [Example 87, 5-methylsulfanyl-4-(2′-vinyl-biphenyl-3-sulfonyl)-thiophene-2-carboxamidine]: the inhibition constant (Ki) fell in the range of 6 to 23 nM.

Turning to `CCOc1ccc(-c2cccc(S(=O)(=O)c3cc(C(=N)N)sc3SC)c2)cc1` [Example 88, 4-(4′-ethoxy-biphenyl-3-sulfonyl)-5-methylsulfanyl-thiophene-2-carboxamidine], the Ki lay in the range of 6 to 23 nM.
